Test results: patent publication US6867320B2, “Substituted phenylalkanoic acid derivatives and use thereof” (Asahi Kasei Pharma Corporation, priority 2002, dated 2005)

Columns and labels:
[1] = test system: PGE2 production from IL-1β-stimulated MG-63 cells; assay: Suppressing action on PGE2 production from IL-1β-stimulated MG-63 cells; type: cell-based; details: Homo sapiens, IL-1β 1 ng/ml, 18 hours, read-out: PGE2 production suppression ratio
Summary of the method: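 Human osteosarcoma MG-63 cells (2×10^4/well) switched to 0.5% FBS medium, treated with compound, then stimulated with IL-1β at 1 ng/ml final for 18 h. Supernatant PGE2 measured by EIA; suppression ratio calculated against stimulated and unstimulated wells.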

[2] = test system: PGD2 production from IgE-stimulated RBL-2H3 cells; assay: Suppressing action on PGD2 production from IgE-stimulated RBL-2H3 cells; type: cell-based; details: Rattus norvegicus, 10 min, IgE/DNP-BSA stimulated RBL-2H3 cells, read-out: PGD2 production suppression ratio
Source text: (§1) 2. Suppressing Action on PGD2 and LTB4 Production from IgE-Stimulated RBL-2H3 Cells
(§2) Suppressing action on PGD2 and LTB4 production caused by IgE as an allergic stimulant was investigated by the following method. Cells of RBL-2H3, which is a rat mastocytoma cell line (purchased from ATCC), were suspended in DEMEM medium (GIBCO) containing 10% fetal bovine serum (BioFluid), inoculated to each well of 48-well culture plate at a density of 2×10^4 cells/well and cultured overnight. Then, IgE antiserum directed to dinitrophenylated BSA (henceforth DNP-BSA) was further added to each well, and the cells were cultured for 30 minutes. Then, the medium was changed to DEMEM medium containing 0.5% fetal bovine serum, a test compound was added with each well, and DNP-BSA was further added at a final concentration of 100 ng/ml as a stimulant. Ten minutes after the stimulant was added, the culture supernatant was collected, and the PGD2 concentration and LTB4 concentration in the culture supernatant were measured by using EIA kit (CAYMAN). By using a well which was not added with the stimulant as a negative control and a well which was added only with the stimulant as a positive control, suppressing ratios on mediator production were calculated from the production amounts of the mediators in the well added with the test compound using the following equation. PGD2 or LTB4 production suppression ratio=[1−(C−B)/(A−B)]×100 • A: PGD2 or LTB4 production amount of positive control • B: PGD2 or LTB4 production amount of negative control • C: PGD2 or LTB4 production amount in well added with test compound
(§3) Further, as control compounds for comparison, reference compound (1), 3-(2-cyclohexylmethyloxy-1,1′-biphenyl-5-yl)propionic acid described in WO99/19291, reference compounds (2) and (3), [2-(5,6,7,8-tetrahydro-5,5,8,8-tetramethyl-2-naphthalenyl)methyloxy-1,1′-biphenyl-5-yl]carboxylic acid [reference compound (2)] and 3-[3′-carboxy-2-(5,6,7,8-tetrahydro-5,5,8,8-tetramethyl-2naphthalenyl)methyloxy-1,1′-biphenyl-6-yl]propionic acid [reference compound (3)] described in U.S. Pat. No. 5,391,817 and Japanese Patent Unexamined Publication (Kokai) No. 7-22399, respectively, were used, and activities thereof were similarly measured.

[3] = test system: zymosan-stimulated footpad edema; assay: Mouse zymosan-stimulated footpad edema reaction; type: in vivo; details: ICR female mice, oral 0.1 to 500 mg/kg, compared with positive control group
Method: 3. Suppressing Effect on Mouse Zymosan-stimulated Footpad Edema Reaction A suppressing effect on footpad edema caused by zymosan as an inflammatory stimulant was studied by the following method. Groups of ICR female mice (6- to 7-week old) each consisting of eight mice were used for the test. A test compound was suspended or dissolved in purified water containing 0.5% methylcellulose and orally administered to the test animals at 0.1 to 500 mg/0.2 ml/kg. To the control group, purified water containing 0.5% methylcellulose was administered in a similar manner, which was not added with a test compound. One hour after the administration of the test compound, 0.02 ml of a suspension of zymosan suspended in physiological saline (Otsuka Pharmaceutical) at 1 mg/ml was subcutaneously administered to right hind leg footpad of each mouse. One and two hours after the administration of the zymosan suspension, volume of the right hind leg footpad was measured by using an apparatus for measuring a volume of mouse hind leg footpad edema (Unicom). A difference of the volume of footpad measured above and the footpad volume before the administration of the test compound measured beforehand was regarded as a volume of the edema. For the volume of the edema at 1 hour or 2 hours after the zymosan administration, a graph was prepared by indicating time in abscissa and the edema volume in ordinate, and an edema volume AUC (area under the curve) was obtained up to 2 hours by calculation using the following equation. Edema volume AUC (1·hour)=1/2×1×A+1×(A+B)/2 • A: Edema volume 1 hour after zymosan administration • B: Edema volume 2 hour after zymosan administration A suppression ratio on edema of test compound was obtained by calculation using the following equation. Edema suppression ratio (%)=[1−B/A]×100 • A: Edema volume AUC of positive control • B: Edema volume AUC of test compound administered group (2) Measurement Results

[4] = test system: LTB4 production from IgE-stimulated RBL-2H3 cells; assay: Suppressing action on LTB4 production from IgE-stimulated RBL-2H3 cells; type: cell-based; details: Rattus norvegicus, 10 min, IgE/DNP-BSA stimulated RBL-2H3 cells, read-out: LTB4 production suppression ratio
Source text: as §1, §2, §3

`O=C(O)CCc1ccc(OCC2CCCC2)c(-c2ccc3c(O)cccc3c2)c1` [Compound 010, 3-[4-cyclopentylmethyloxy-3-(5-hydroxynaphthalen-2-yl)phenyl]propionic acid] was tested, and the inhibition at 0.4 µM [1] was at least 50%, the inhibition at 0.4 µM [2] was at least 50% and the “suppression of footpad edema caused by zymosan” value (from here on “suppression”) [3] was “suppressed footpad edema”. The inhibition at 0.4 µM [4] was at least 50%.
With `O=C(O)CCc1ccc(OCC2CCCCC2)c(-c2ccc3ccccc3c2)c1` [Compound 066, 3-[4-cyclohexylmethyloxy-3-(naphthalen-2-yl)phenyl]propionic acid] the inhibition at 0.4 µM [1] was at least 50%, the inhibition at 0.4 µM [2] was at least 50% and the “suppression” value [3] was “suppressed footpad edema”. For the same compound, the inhibition at 0.4 µM [4] was at least 50%.
For `Nc1cc(CCC(=O)O)cc(-c2ccc3ccccc3c2)c1OCC1CCCC1` [Compound 095, 3-[3-amino-4-cyclopentylmethyloxy-5-(naphthalen-2-yl)phenyl]propionic acid], the inhibition at 0.4 µM [1] was at least 50%, the inhibition at 0.4 µM [2] was at least 50% and the “suppression” value [3] was “suppressed footpad edema”. For the same compound, the inhibition at 0.4 µM [4] was at least 50%.
With `COC(=O)CCc1ccc(OCC2CCCC2)c(-c2ccc3[nH]ccc3c2)c1` [Compound 099, methyl 3-[4-cyclopentylmethyloxy-3-(1H-indol-5-yl)phenyl]propionate] the inhibition at 0.4 µM [1] was at least 50%, the inhibition at 0.4 µM [2] was at least 50% and the “suppression” value [3] was “suppressed footpad edema”. The inhibition at 0.4 µM [4] was at least 50%.
With `O=C(O)CCc1ccc(OC2CCCC2)c(-c2ccc3[nH]ccc3c2)c1` [Compound 102, 3-[4-cyclopentyloxy-3-(1H-indol-5-yl)phenyl]propionic acid] the inhibition at 0.4 µM [1] was at least 50%, the inhibition at 0.4 µM [2] was at least 50% and the “suppression” value [3] was “suppressed footpad edema”. For the same compound, the inhibition at 0.4 µM [4] was at least 50%.
With `O=C(O)CCc1ccc(OC2CCCCC2)c(-c2ccc3[nH]ccc3c2)c1` [Compound 104, 3-[4-cyclohexyloxy-3-(1H-indol-5-yl)phenyl]propionic acid] the inhibition at 0.4 µM [1] was at least 50%, the inhibition at 0.4 µM [2] was at least 50% and the “suppression” value [3] was “suppressed footpad edema”. It also gave an inhibition at 0.4 µM [4] of at least 50%.
In the case of `Cn1ccc2cc(-c3cc(CCC(=O)O)ccc3OC3CCCCC3)ccc21` [Compound 110, 3-[4-cyclohexyloxy-3-(1-methyl-1H-indol-5-yl)phenyl]propionic acid], the inhibition at 0.4 µM [1] was at least 50%, the inhibition at 0.4 µM [2] was at least 50% and the “suppression” value [3] was “suppressed footpad edema”. For the same compound, the inhibition at 0.4 µM [4] was at least 50%.
For `O=C(O)CCc1ccc(OCc2ccccc2F)c(-c2ccc3[nH]ccc3c2)c1` [Compound 142, 3-[4-(2-fluorophenylmethyloxy)-3-(1H-indol-5-yl)phenyl]propionic acid], the inhibition at 0.4 µM [1] was at least 50%, the inhibition at 0.4 µM [2] was at least 50% and the “suppression” value [3] was “suppressed footpad edema”. It also gave an inhibition at 0.4 µM [4] of at least 50%.
For `O=C(O)CCc1ccc(OCc2ccccc2Cl)c(-c2ccc3[nH]ccc3c2)c1` [Compound 148, 3-[4-(2-chlorophenylmethyloxy)-3-(1H-indol-5-yl)phenyl]propionic acid], the inhibition at 0.4 µM [1] was at least 50%, the inhibition at 0.4 µM [2] was at least 50% and the “suppression” value [3] was “suppressed footpad edema”. For the same compound, the inhibition at 0.4 µM [4] was at least 50%.
With `O=C(O)CCc1ccc(OCc2cccc(Cl)c2)c(-c2ccc3[nH]ccc3c2)c1` [Compound 150, 3-[4-(3-chlorophenylmethyloxy)-3-(1H-indol-5-yl)phenyl]propionic acid] the inhibition at 0.4 µM [1] was at least 50%, the inhibition at 0.4 µM [2] was at least 50% and the “suppression” value [3] was “suppressed footpad edema”. It also gave an inhibition at 0.4 µM [4] of at least 50%.
With `O=C(O)CCc1ccc(OCc2ccc(Cl)cc2)c(-c2ccc3[nH]ccc3c2)c1` [Compound 152, 3-[4-(4-chlorophenylmethyloxy)-3-(1H-indol-5-yl)phenyl]propionic acid] the inhibition at 0.4 µM [1] was at least 50%, the inhibition at 0.4 µM [2] was at least 50% and the “suppression” value [3] was “suppressed footpad edema”. The inhibition at 0.4 µM [4] was at least 50%.
In the case of `O=C(O)CCc1ccc(OCc2ccccc2Br)c(-c2ccc3[nH]ccc3c2)c1` [Compound 154, 3-[4-(2-bromophenylmethyloxy)-3-(1H-indol-5-yl)phenyl]propionic acid], the inhibition at 0.4 µM [1] was at least 50%, the inhibition at 0.4 µM [2] was at least 50% and the “suppression” value [3] was “suppressed footpad edema”. For the same compound, the inhibition at 0.4 µM [4] was at least 50%.
In the case of `O=C(O)CCc1ccc(OCc2ccc(-c3ccccc3)cc2)c(-c2ccc3[nH]ccc3c2)c1` [Compound 179, 3-{4-[(biphenyl-4-yl)methyloxy]-3-(1H-indol-5-yl)phenyl}propionic acid], the inhibition at 0.4 µM [1] was at least 50%, the inhibition at 0.4 µM [2] was at least 50% and the “suppression” value [3] was “suppressed footpad edema”. For the same compound, the inhibition at 0.4 µM [4] was at least 50%.
For `Cc1ccc(CCOc2ccc(CCC(=O)O)cc2-c2ccc3[nH]ccc3c2)cc1` [Compound 204, 3-{3-(1H-indol-5-yl)-4-[2-(4-methylphenyl)ethyloxy]phenyl}propionic acid], the inhibition at 0.4 µM [1] was at least 50%, the inhibition at 0.4 µM [2] was at least 50% and the “suppression” value [3] was “suppressed footpad edema”. The inhibition at 0.4 µM [4] was at least 50%.
With `Cn1ccc2cc(-c3cc(CCC(=O)O)ccc3OCC3CCCC3)ccc21` [Compound 235, 3-[4-cyclopentylmethyloxy-3-(1-methyl-1H-indol-5-yl)phenyl]propionic acid] the inhibition at 0.4 µM [1] was at least 50%, the inhibition at 0.4 µM [2] was at least 50% and the “suppression” value [3] was “suppressed footpad edema”. For the same compound, the inhibition at 0.4 µM [4] was at least 50%.
`CCn1ccc2cc(-c3cc(CCC(=O)O)ccc3OC3CCCC3)ccc21` [Compound 246, 3-[4-cyclopentyloxy-3-(1-ethyl-1H-indol-5-yl)phenyl]propionic acid] was tested, and the inhibition at 0.4 µM [1] was at least 50%, the inhibition at 0.4 µM [2] was at least 50% and the “suppression” value [3] was “suppressed footpad edema”. It also gave an inhibition at 0.4 µM [4] of at least 50%.
`Nc1nc2ccc(-c3cc(CCC(=O)O)ccc3OC3CCCCC3)cc2s1` [Compound 295, 3-[3-(2-aminobenzothiazol-6-yl)-4-cyclohexyloxyphenyl]propionic acid] was tested, and the inhibition at 0.4 µM [1] was at least 50%, the inhibition at 0.4 µM [2] was at least 50% and the “suppression” value [3] was “suppressed footpad edema”. It also gave an inhibition at 0.4 µM [4] of at least 50%.
